# Laboratory results from ChEMBL document CHEMBL4265943, “Design and synthesis of potent dual inhibitors of JAK2 and HDAC based on fusing the pharmacophores of XL019 and vorinostat” (Eur J Med Chem, 2018).
# Target: Tyrosine-protein kinase JAK2 (Homo sapiens, UniProt O60674)
# Assay: Inhibition of human JAK2 using poly(Glu:Tyr)(4:1) as substrate preincubated for 20 mins followed by [gamma33P]ATP addition measured after 120 mins by ion exchange filter paper method
# Details: not given
# Sequence of Tyrosine-protein kinase JAK2 (O60674 whole entry): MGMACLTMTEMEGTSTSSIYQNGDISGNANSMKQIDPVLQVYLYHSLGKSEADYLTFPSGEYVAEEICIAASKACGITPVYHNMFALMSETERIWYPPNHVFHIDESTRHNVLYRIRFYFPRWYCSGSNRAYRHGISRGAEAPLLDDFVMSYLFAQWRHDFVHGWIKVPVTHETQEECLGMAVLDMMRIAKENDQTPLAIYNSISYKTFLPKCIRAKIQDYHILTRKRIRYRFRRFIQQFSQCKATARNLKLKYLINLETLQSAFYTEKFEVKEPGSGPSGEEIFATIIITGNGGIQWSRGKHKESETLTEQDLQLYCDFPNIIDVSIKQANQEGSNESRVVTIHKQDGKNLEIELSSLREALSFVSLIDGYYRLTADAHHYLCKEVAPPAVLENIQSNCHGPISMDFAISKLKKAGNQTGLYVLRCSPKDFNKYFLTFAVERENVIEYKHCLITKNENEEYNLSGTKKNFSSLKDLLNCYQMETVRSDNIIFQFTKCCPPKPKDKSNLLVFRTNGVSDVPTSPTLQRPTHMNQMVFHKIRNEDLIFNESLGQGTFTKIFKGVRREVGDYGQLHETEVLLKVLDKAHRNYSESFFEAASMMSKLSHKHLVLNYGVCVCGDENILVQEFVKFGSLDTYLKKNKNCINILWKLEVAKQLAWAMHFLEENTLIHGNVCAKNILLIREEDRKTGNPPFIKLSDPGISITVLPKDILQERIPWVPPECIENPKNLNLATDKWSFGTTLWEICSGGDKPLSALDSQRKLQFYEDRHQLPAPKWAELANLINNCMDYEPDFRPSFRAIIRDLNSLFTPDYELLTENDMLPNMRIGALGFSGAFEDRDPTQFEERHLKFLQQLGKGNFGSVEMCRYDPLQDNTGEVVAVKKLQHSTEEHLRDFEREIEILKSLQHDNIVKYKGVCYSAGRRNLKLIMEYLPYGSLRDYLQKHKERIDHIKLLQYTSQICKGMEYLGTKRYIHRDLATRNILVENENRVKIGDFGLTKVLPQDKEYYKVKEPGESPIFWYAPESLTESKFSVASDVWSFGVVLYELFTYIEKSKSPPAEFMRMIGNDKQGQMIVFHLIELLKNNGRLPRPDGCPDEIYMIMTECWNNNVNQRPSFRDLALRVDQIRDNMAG
row,IC50 [nM],SMILES
1,41.3,O=C(CCCCCCC(=O)Nc1ccc(-c2ccnc(Nc3ccccc3)n2)cc1)NO
2,9.2,CC(=O)Nc1ccc(-c2ccnc(Nc3cccc(NC(=O)CCCCCCC(=O)NO)c3)n2)cc1

# Target: Histone deacetylase 1 (Homo sapiens, UniProt Q13547)
# Sequence (Q13547 whole entry): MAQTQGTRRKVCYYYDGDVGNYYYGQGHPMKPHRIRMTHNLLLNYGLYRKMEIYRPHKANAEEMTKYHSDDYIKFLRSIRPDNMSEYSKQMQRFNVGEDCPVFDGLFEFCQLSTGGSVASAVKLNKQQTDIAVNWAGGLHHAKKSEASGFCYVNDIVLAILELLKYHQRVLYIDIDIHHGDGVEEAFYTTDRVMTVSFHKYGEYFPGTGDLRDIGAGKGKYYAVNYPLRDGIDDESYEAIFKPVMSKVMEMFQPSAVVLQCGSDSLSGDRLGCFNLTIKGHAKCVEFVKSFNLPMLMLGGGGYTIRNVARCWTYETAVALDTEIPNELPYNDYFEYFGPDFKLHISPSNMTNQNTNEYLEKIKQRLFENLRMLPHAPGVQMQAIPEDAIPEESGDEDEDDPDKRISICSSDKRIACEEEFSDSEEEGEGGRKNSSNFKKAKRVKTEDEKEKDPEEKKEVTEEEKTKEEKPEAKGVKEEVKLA
# Assay: Inhibition of HDAC1 (unknown origin) using Arg-His-Lys-Lys(Ac) as substrate preincubated with enzyme followed by substrate addition for 2 hrs and measured for 1.5 hrs at 15 mins time interval by fluorescence assay
# Details: not given
row,IC50 [nM],SMILES
1,3.8,O=C(CCCCCCC(=O)Nc1ccc(-c2ccnc(Nc3ccccc3)n2)cc1)NO
2,32.4,CC(=O)Nc1ccc(-c2ccnc(Nc3cccc(NC(=O)CCCCCCC(=O)NO)c3)n2)cc1

# Target: T1, Protein deacetylase HDAC6 (Homo sapiens, UniProt Q9UBN7)
# T1 sequence (Q9UBN7 whole entry): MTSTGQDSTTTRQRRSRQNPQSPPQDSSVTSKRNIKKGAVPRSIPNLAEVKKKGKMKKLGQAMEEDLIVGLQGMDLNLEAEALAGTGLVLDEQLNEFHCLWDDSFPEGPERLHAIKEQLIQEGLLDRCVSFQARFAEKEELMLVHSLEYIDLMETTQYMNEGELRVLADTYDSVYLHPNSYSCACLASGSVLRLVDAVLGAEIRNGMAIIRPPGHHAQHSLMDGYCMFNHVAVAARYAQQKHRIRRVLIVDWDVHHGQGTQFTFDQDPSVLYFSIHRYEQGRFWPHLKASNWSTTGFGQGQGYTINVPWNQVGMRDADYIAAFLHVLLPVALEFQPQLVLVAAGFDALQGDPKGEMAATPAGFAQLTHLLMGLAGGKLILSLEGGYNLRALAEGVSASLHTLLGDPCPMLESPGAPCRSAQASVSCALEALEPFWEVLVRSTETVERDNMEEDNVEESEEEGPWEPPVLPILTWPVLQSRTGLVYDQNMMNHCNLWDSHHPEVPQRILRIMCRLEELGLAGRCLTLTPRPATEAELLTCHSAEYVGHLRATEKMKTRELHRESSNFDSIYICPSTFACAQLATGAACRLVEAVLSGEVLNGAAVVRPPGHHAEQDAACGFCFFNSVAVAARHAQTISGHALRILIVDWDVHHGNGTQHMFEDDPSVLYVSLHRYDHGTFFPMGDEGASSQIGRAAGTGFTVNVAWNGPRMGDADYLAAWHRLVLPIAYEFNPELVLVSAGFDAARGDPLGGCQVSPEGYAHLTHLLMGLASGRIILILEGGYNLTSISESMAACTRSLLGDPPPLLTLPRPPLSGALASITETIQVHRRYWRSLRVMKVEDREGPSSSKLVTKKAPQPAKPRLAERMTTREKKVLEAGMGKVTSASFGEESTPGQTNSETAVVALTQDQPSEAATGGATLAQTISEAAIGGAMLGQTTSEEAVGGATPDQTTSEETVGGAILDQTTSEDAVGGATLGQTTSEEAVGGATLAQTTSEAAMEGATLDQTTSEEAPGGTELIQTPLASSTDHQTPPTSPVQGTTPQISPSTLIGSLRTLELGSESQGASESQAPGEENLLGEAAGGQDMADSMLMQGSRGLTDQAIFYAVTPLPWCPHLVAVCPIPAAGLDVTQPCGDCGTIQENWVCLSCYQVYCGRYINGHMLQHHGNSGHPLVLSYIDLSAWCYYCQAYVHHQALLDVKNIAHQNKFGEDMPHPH
# Assay: Inhibition of HDAC6 (unknown origin) using Arg-His-Lys-Lys(Ac) as substrate preincubated with enzyme followed by substrate addition for 2 hrs and measured for 1.5 hrs at 15 mins time interval by fluorescence assay
# Details: not given
row,IC50 [nM],SMILES
1,1.44,O=C(CCCCCCC(=O)Nc1ccc(-c2ccnc(Nc3ccccc3)n2)cc1)NO
2,0.81,CC(=O)Nc1ccc(-c2ccnc(Nc3cccc(NC(=O)CCCCCCC(=O)NO)c3)n2)cc1

# Tested on: HCT-116
# Assay: Antiproliferative activity against human HCT116 cells after 72 hrs by MTT assay
# Format: functional, cell-based
# Details: HCT-116, 72 h
row,IC50 [nM],SMILES
1,190,O=C(CCCCCCC(=O)Nc1ccc(-c2ccnc(Nc3ccccc3)n2)cc1)NO
2,1150,CC(=O)Nc1ccc(-c2ccnc(Nc3cccc(NC(=O)CCCCCCC(=O)NO)c3)n2)cc1

# Tested on: MDA-MB-231
# Assay: Antiproliferative activity against human MDA-MB-231 cells after 72 hrs by MTT assay
# Format: functional, cell-based
# Details: MDA-MB-231, 72 h
row,IC50 [nM],SMILES
1,270,O=C(CCCCCCC(=O)Nc1ccc(-c2ccnc(Nc3ccccc3)n2)cc1)NO
2,2480,CC(=O)Nc1ccc(-c2ccnc(Nc3cccc(NC(=O)CCCCCCC(=O)NO)c3)n2)cc1

# Tested on: MCF7
# Assay: Antiproliferative activity against human MCF7 cells after 72 hrs by MTT assay
# Format: functional, cell-based
# Details: MCF7, 72 h
row,IC50 [nM],SMILES
1,330,O=C(CCCCCCC(=O)Nc1ccc(-c2ccnc(Nc3ccccc3)n2)cc1)NO
2,320,CC(=O)Nc1ccc(-c2ccnc(Nc3cccc(NC(=O)CCCCCCC(=O)NO)c3)n2)cc1

# Tested on: PC-3
# Assay: Antiproliferative activity against human PC3 cells after 72 hrs by MTT assay
# Format: functional, cell-based
# Details: PC-3, 72 h
row,IC50 [nM],SMILES
1,210,O=C(CCCCCCC(=O)Nc1ccc(-c2ccnc(Nc3ccccc3)n2)cc1)NO
2,340,CC(=O)Nc1ccc(-c2ccnc(Nc3cccc(NC(=O)CCCCCCC(=O)NO)c3)n2)cc1

# Tested on: not listed separately
# Assay: Antiproliferative activity against human AC10 cells after 72 hrs by MTT assay
# Format: cell-based
# Details: not given
row,SMILES,CC50 at 72 h [nM]
1,O=C(CCCCCCC(=O)Nc1ccc(-c2ccnc(Nc3ccccc3)n2)cc1)NO,3010
2,CC(=O)Nc1ccc(-c2ccnc(Nc3cccc(NC(=O)CCCCCCC(=O)NO)c3)n2)cc1,19500

# Tested on: not listed separately
# Assay: Antiproliferative activity against mouse TAMH cells after 72 hrs by MTT assay
# Format: cell-based
# Details: not given
row,SMILES,CC50 at 72 h [nM]
1,O=C(CCCCCCC(=O)Nc1ccc(-c2ccnc(Nc3ccccc3)n2)cc1)NO,7280
2,CC(=O)Nc1ccc(-c2ccnc(Nc3cccc(NC(=O)CCCCCCC(=O)NO)c3)n2)cc1,12500

# Tested on: not listed separately
# Assay: Selectivity index, ratio of CC50 for human AC10 cells to IC50 for human HCT116 cells
# Format: toxicity
# Details: AC10 cells (CC50) and HCT116 cells (IC50)
row,SMILES,selectivity ratio
1,O=C(CCCCCCC(=O)Nc1ccc(-c2ccnc(Nc3ccccc3)n2)cc1)NO,15.8
2,CC(=O)Nc1ccc(-c2ccnc(Nc3cccc(NC(=O)CCCCCCC(=O)NO)c3)n2)cc1,9.91

# Tested on: not listed separately
# Assay: Selectivity index, ratio of CC50 for mouse TAMH cells to IC50 for human HCT116 cells
# Format: toxicity
# Details: TAMH cells (CC50) and HCT116 cells (IC50)
row,SMILES,selectivity ratio
1,O=C(CCCCCCC(=O)Nc1ccc(-c2ccnc(Nc3ccccc3)n2)cc1)NO,38.3
2,CC(=O)Nc1ccc(-c2ccnc(Nc3cccc(NC(=O)CCCCCCC(=O)NO)c3)n2)cc1,6.36

# Tested on: not listed separately
# Assay: Selectivity index, ratio of CC50 for human AC10 cells to IC50 for human MDA-MB-231 cells
# Format: toxicity
# Details: AC10 cells (CC50) and MDA-MB-231 cells (IC50)
row,SMILES,selectivity ratio
1,O=C(CCCCCCC(=O)Nc1ccc(-c2ccnc(Nc3ccccc3)n2)cc1)NO,11.2
2,CC(=O)Nc1ccc(-c2ccnc(Nc3cccc(NC(=O)CCCCCCC(=O)NO)c3)n2)cc1,12.7

# Tested on: not listed separately
# Assay: Selectivity index, ratio of CC50 for mouse TAMH cells to IC50 for human MDA-MB-231 cells
# Format: toxicity
# Details: TAMH cells (CC50) and MDA-MB-231 cells (IC50)
row,SMILES,selectivity ratio
1,O=C(CCCCCCC(=O)Nc1ccc(-c2ccnc(Nc3ccccc3)n2)cc1)NO,27
2,CC(=O)Nc1ccc(-c2ccnc(Nc3cccc(NC(=O)CCCCCCC(=O)NO)c3)n2)cc1,8.14

# Tested on: not listed separately
# Assay: Selectivity index, ratio of CC50 for human AC10 cells to IC50 for human MCF7 cells
# Format: toxicity
# Details: AC10 cells (CC50) and MCF7 cells (IC50)
row,SMILES,selectivity ratio
1,O=C(CCCCCCC(=O)Nc1ccc(-c2ccnc(Nc3ccccc3)n2)cc1)NO,9.12

# Tested on: not listed separately
# Assay: Selectivity index, ratio of CC50 for mouse TAMH cells to IC50 for human MCF7 cells
# Format: toxicity
# Details: TAMH cells (CC50) and MCF7 cells (IC50)
row,SMILES,selectivity ratio
1,O=C(CCCCCCC(=O)Nc1ccc(-c2ccnc(Nc3ccccc3)n2)cc1)NO,22.1

# Tested on: not listed separately
# Assay: Selectivity index, ratio of CC50 for human AC10 cells to IC50 for human PC3 cells
# Format: toxicity
# Details: AC10 cells (CC50) and PC3 cells (IC50)
row,SMILES,selectivity ratio
1,O=C(CCCCCCC(=O)Nc1ccc(-c2ccnc(Nc3ccccc3)n2)cc1)NO,14.3

# Tested on: not listed separately
# Assay: Selectivity index, ratio of CC50 for mouse TAMH cells to IC50 for human PC3 cells
# Format: toxicity
# Details: TAMH cells (CC50) and PC3 cells (IC50)
row,SMILES,selectivity ratio
1,O=C(CCCCCCC(=O)Nc1ccc(-c2ccnc(Nc3ccccc3)n2)cc1)NO,34.7

# Tested on: HEL 92.1.7
# Assay: cells
# Format: functional, cell-based
# Details: Homo sapiens, HEL 92.1.7, 72 h
# Description: Antiproliferative activity against human HEL 92.1.7 cells after 72 hrs by MTT assay
row,IC50 [nM],SMILES
1,> 10000,CC(=O)Nc1ccc(-c2ccnc(Nc3cccc(NC(=O)CCCCCCC(=O)NO)c3)n2)cc1

# Tested on: Jurkat
# Assay: Antiproliferative activity against human Jurkat cells after 72 hrs by MTT assay
# Format: functional, cell-based
# Details: not given
row,IC50 [nM],SMILES
1,> 10000,CC(=O)Nc1ccc(-c2ccnc(Nc3cccc(NC(=O)CCCCCCC(=O)NO)c3)n2)cc1
